This note sets out measurements from patent US11746100B2 (GLOBAL BLOOD THERAPEUTICS, INC., priority 2020, dated 2023).

This assay concerns the target T1, human ferroportin (Homo sapiens, UniProt Q9NP59).
T1 construct: luciferase reporter (read with the Nano-Glo Luciferase Assay System); expressed in transfected cells; host or cells: CHO cells, stably transfected, expression induced with doxycycline
T1 sequence (Q9NP59 1-571): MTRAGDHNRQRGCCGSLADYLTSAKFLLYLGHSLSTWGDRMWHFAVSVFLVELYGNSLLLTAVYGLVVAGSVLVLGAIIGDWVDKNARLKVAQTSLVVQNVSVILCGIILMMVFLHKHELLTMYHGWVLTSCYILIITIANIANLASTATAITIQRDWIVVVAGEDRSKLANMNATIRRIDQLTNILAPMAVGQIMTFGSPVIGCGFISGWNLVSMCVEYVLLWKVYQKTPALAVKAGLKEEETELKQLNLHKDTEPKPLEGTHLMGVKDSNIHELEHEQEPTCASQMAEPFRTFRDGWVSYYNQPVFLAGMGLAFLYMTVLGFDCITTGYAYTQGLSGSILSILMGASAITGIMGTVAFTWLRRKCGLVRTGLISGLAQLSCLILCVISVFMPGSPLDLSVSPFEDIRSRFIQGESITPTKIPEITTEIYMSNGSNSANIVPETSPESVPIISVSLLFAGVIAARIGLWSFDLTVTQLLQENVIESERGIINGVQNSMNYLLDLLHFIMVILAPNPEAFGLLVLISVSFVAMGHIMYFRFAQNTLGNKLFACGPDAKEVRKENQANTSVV
Kind of assay: Biological in-vitro ferroportin internalization assay (luciferase reporter). It is filed as cell-based. Particulars: average pEC50; stably-transfected CHO cell line expressing human ferroportin tagged to a luciferase reporter; 6 h incubation with test compound. Here is the method:
The protocol for this assay is generally as described in WO2018/128828, incorporated herein by reference in its entirety. Functional internalization of ferroportin protein was measured using a stably-transfected CHO cell line expressing the human ferroportin tagged to a luciferase reporter. Cells were plated for 24 h in the presence of ferric ammonium citrate (FAC). Ferroportin protein expression was induced with doxycycline for 24 h. The next day, the compounds were added. Test compounds were dissolved in DMSO. Cells were incubated with the test compounds for 6 h, and subsequently luciferase activity was measured using the Nano-Glo Luciferase Assay System and Glomax (Promega, Madison, Wis.). The average pEC50 was determined for the test compounds.
One may read the pEC50 as the EC50 on a negative log10 scale, so that one unit is a factor of ten. Read a high pEC50 as a small EC50. The compound `CC(C)(C)NC(=O)CN(CCO)c1nc(-c2ccccn2)nc2c1CCC2` [Compound 37, N-tert-butyl-2-[(2-hydroxyethyl)[2-(pyridin-2-yl)-5H,6H,7H-cyclopenta[d]pyrimidin-4-yl]amino]acetamide] yielded a pEC50 of 6.6.
On to `CN(CC(=O)NCc1ccccn1)c1nc(-c2ccccn2)nc2c1CCC2` [Compound 38, 2-{methyl[2-(pyridin-2-yl)-5H,6H,7H-cyclopenta[d]pyrimidin-4-yl]amino}-N-[(pyridin-2-yl)methyl]acetamide], for which the pEC50 came out at 6.6.
In the case of `CN(CC(=O)NC(C)(C)C)c1nc(-c2cccc(OCCO)n2)nc2c1CCC2` [Compound 39, N-tert-butyl-2-({2-[6-(2-hydroxyethoxy)pyridin-2-yl]-5H,6H,7H-cyclopenta[d]pyrimidin-4-yl}(methyl)amino)acetamide], the pEC50 is on record as 6.3.
The value for `CN(CC(=O)NC(C)(C)C)c1nc(-c2ccc(OCCO)cn2)nc2c1CCC2` [Compound 40, N-tert-butyl-2-({2-[5-(2-hydroxyethoxy)pyridin-2-yl]-5H,6H,7H-cyclopenta[d]pyrimidin-4-yl}(methyl)amino)acetamide] was 7.1; that for `CN(CC(=O)NC(C)(C)C)c1nc(-c2cc(CO)ccn2)nc2c1CCC2` [Compound 41, N-tert-butyl-2-({2-[4-(hydroxymethyl)pyridin-2-yl]-5H,6H,7H-cyclopenta[d]pyrimidin-4-yl}(methyl)amino)acetamide] was 7.3.
Take `Cc1ccnc(-c2nc3c(c(N(C)CC(=O)NC(C)(C)C)n2)CCCC3)c1` [Compound 42, N-tert-butyl-2-{methyl[2-(4-methylpyridin-2-yl)-5,6,7,8-tetrahydroquinazolin-4-yl]amino}acetamide]: the pEC50 amounted to 7.3.
On to `CN(CC(=O)NC(C)(C)C)c1nc(-c2ccc(CCO)cn2)nc2c1CCC2` [Compound 43, N-tert-butyl-2-({2-[5-(2-hydroxyethyl)pyridin-2-yl]-5H,6H,7H-cyclopenta[d]pyrimidin-4-yl}(methyl)amino)acetamide], for which the pEC50 was 7.
Regarding `CN(CC(=O)NC(C)(C)C)c1nc(-c2cc(OCCO)ccn2)nc2c1CCC2` [Compound 44, N-tert-butyl-2-({2-[4-(2-hydroxyethoxy)pyridin-2-yl]-5H,6H,7H-cyclopenta[d]pyrimidin-4-yl}(methyl)amino)acetamide], the pEC50 worked out at 7.9.
Under `Cc1ccnc(-c2nc3c(c(N4CCCO[C@H]5CCC[C@@H]54)n2)CCC3)c1` [Compound 45, 2-{4-[(5aS,8aS)-octahydro-2H-cyclopenta[b][1,4]oxazepin-5-yl]-5H,6H,7H-cyclopenta[d]pyrimidin-2-yl}-4-methylpyridine] stands 7.2.
Under `O=C1CCCCCN1c1nc(-c2ccccn2)nc2c1CCC2` [Compound 46, 1-[2-(pyridin-2-yl)-5H,6H,7H-cyclopenta[d]pyrimidin-4-yl]azepan-2-one] stands 5.1; under `O=C1CN(c2nc(-c3ccccn3)nc3c2CCC3)CCCN1` [Compound 47, 4-[2-(pyridin-2-yl)-5H,6H,7H-cyclopenta[d]pyrimidin-4-yl]-1,4-diazepan-2-one], 5.7.
The compound `c1ccc(-c2nc3c(c(N4CCCO[C@@H]5CCC[C@@H]54)n2)CCC3)nc1` [Compound 48, 2-{4-[(5aS,8aR)-octahydro-2H-cyclopenta[b][1,4]oxazepin-5-yl]-5H,6H,7H-cyclopenta[d]pyrimidin-2-yl}pyridine] showed a pEC50 of 6.8.
Under `Cc1ccnc(-c2nc3c(c(N4CCCO[C@@H]5CCC[C@@H]54)n2)CCC3)c1` [Compound 49, 2-{4-[(5aS,8aR)-octahydro-2H-cyclopenta[b][1,4]oxazepin-5-yl]-5H,6H,7H-cyclopenta[d]pyrimidin-2-yl}-4-methylpyridine] stands 7.1.
The value for `O=C1CCN(c2nc(-c3ccccn3)nc3c2CCC3)CCN1` [Compound 50, 1-[2-(pyridin-2-yl)-5H,6H,7H-cyclopenta[d]pyrimidin-4-yl]-1,4-diazepan-5-one] was 5.6.
Compound `C[C@H](C(=O)NC(C)(C)C)N(C)c1nc(-c2ccccn2)nc2c1CCC2` [Compound 51, (2R)—N-tert-butyl-2-{methyl[2-(pyridin-2-yl)-5H,6H,7H-cyclopenta[d]pyrimidin-4-yl]amino}propanamide] displayed a pEC50 of 7.5.
The value for `C[C@@H](C(=O)NC(C)(C)C)N(C)c1nc(-c2ccccn2)nc2c1CCC2` [Compound 52, (2S)—N-tert-butyl-2-{methyl[2-(pyridin-2-yl)-5H,6H,7H-cyclopenta[d]pyrimidin-4-yl]amino}propanamide] was 6.8.
The value for `COc1ccnc(-c2nc3c(c(N4CCCCCC4)n2)CCC3)c1` [Compound 53, 1-[2-(4-methoxypyridin-2-yl)-5H,6H,7H-cyclopenta[d]pyrimidin-4-yl]azepane] was 6.6.
`COc1ccnc(-c2nc3c(c(N4CCCO[C@@H]5CCC[C@@H]54)n2)CCC3)c1` [Compound 54, 2-{4-[(5aS,8aR)-octahydro-2H-cyclopenta[b][1,4]oxazepin-5-yl]-5H,6H,7H-cyclopenta[d]pyrimidin-2-yl}-4-methoxypyridine] gave a pEC50 of 6.9.
Under `CC1(C)CC[C@@H](Nc2nc(-c3ccccn3)nc3c2CCC3)C(=O)N1` [Compound 55, (3R)-6,6-dimethyl-3-{[2-(pyridin-2-yl)-5H,6H,7H-cyclopenta[d]pyrimidin-4-yl]amino}piperidin-2-one] stands 6.3; under `CC1(C)CC[C@H](Nc2nc(-c3ccccn3)nc3c2CCC3)C(=O)N1` [Compound 56, (3S)-6,6-dimethyl-3-{[2-(pyridin-2-yl)-5H,6H,7H-cyclopenta[d]pyrimidin-4-yl]amino}piperidin-2-one], 6.7; under `CN(CC(=O)NC(C)(C)C)c1nc(-c2cc(C3CC3)ccn2)nc2c1CCC2` [Compound 57, N-tert-butyl-2-{[2-(4-cyclopropylpyridin-2-yl)-5H,6H,7H-cyclopenta[d]pyrimidin-4-yl](methyl)amino}acetamide], 7.5.
Under `CN(CC(=O)NC(C)(C)C)c1nc(-c2cc(F)ccn2)nc2c1CCC2` [Compound 58, N-tert-butyl-2-{[2-(4-fluoropyridin-2-yl)-5H,6H,7H-cyclopenta[d]pyrimidin-4-yl](methyl)amino}acetamide] stands 6.7.
The value for `Cc1cccc(-c2nc3c(c(N(C)CC(=O)NC(C)(C)C)n2)CCC3)n1` [Compound 59, -tert-butyl-2-{methyl[2-(6-methylpyridin-2-yl)-5H,6H,7H-cyclopenta[d]pyrimidin-4-yl]amino}acetamide] was 6.8.
Turning to `Cc1cnc(-c2nc3c(c(N(C)CC(=O)NC(C)(C)C)n2)CCC3)cc1C` [Compound 60, N-tert-butyl-2-{[2-(4,5-dimethylpyridin-2-yl)-5H,6H,7H-cyclopenta[d]pyrimidin-4-yl](methyl)amino}acetamide], the pEC50 was 7.6.
Under `CN(CC(=O)NC(C)(C)CO)c1nc(-c2ccccn2)nc2c1CCC2` [Compound 61, N-(1-hydroxy-2-methylpropan-2-yl)-2-{methyl[2-(pyridin-2-yl)-5H,6H,7H-cyclopenta[d]pyrimidin-4-yl]amino}acetamide] stands 7.1; under `Cc1ccnc(-c2nc3c(c(N(C)CC(=O)NC(C)(C)CO)n2)CCC3)c1` [Compound 62, N-(1-hydroxy-2-methylpropan-2-yl)-2-{methyl[2-(4-methylpyridin-2-yl)-5H,6H,7H-cyclopenta[d]pyrimidin-4-yl]amino}acetamide], 7.6; under `CN(CC(=O)NC(C)(C)CCO)c1nc(-c2ccccn2)nc2c1CCC2` [Compound 63, N-(4-hydroxy-2-methylbutan-2-yl)-2-{methyl[2-(pyridin-2-yl)-5H,6H,7H-cyclopenta[d]pyrimidin-4-yl]amino}acetamide], 7.2.
The value for `Cc1ccnc(-c2nc3c(c(N(C)CC(=O)NC4CCCC4)n2)CCC3)c1` [Compound 64, N-cyclopentyl-2-{methyl[2-(4-methylpyridin-2-yl)-5H,6H,7H-cyclopenta[d]pyrimidin-4-yl]amino}acetamide] was 7.8; that for `Cc1ccnc(-c2nc3c(c(N(C)CC(=O)NC4(C)CCOC4)n2)CCC3)c1` (stereo not drawn) [Compound 65, 2-{methyl[2-(4-methylpyridin-2-yl)-5H,6H,7H-cyclopenta[d]pyrimidin-4-yl]amino}-N-(3-methyloxolan-3-yl)acetamide] was 7.6.
The compound `Cc1ccnc(-c2nc3c(c(N(C)CC(=O)Nc4cccc(F)c4)n2)CCC3)c1` [Compound 66, N-(3-fluorophenyl)-2-{methyl[2-(4-methylpyridin-2-yl)-5H,6H,7H-cyclopenta[d]pyrimidin-4-yl]amino}acetamide] returned a pEC50 of 7.7.
